Experimental data taken from article PMC11066871 (Journal of the American Chemical Society, 2024).

Experiments:
[1] = test system: anti-pS2 antibody 2G1; assay: Indirect ELISA, relative binding at single antibody dilution; parameters: species or system rabbit; conditions: immobilized peptide
Protocol: (§1) To allow rapid screening, the His6-tagged CTD peptides were immobilized onto Ni^2+-coated 96-well microtiter plates. The immobilized peptides were incubated with increasing concentrations of the anti-pS2 antibody E1Z3G. […] Next, positional scanning was performed with anti-pS2 antibodies EPR18855 (Abcam) and 2G1 (Thermo Fisher/Invitrogen). Here, and in subsequent experiments, we refrained from obtaining titration curves and instead determined the fold change of antibody binding relative to that of a reference binder (Figure 4B).
(§2) Figure 4 (A) Titration of the E1Z3G primary antibody to immobilized hexaheptade peptides. […] (C) Probing chelate and cluster effects upon binding of EPR18855, 2G1, and E1Z3G mAbs to hexaheptad peptides containing two or six pSer2 residues. […] 100 μL of TMB–H2O2 solution (1:1), 20 min, 25 °C, ii. 100 μL of 2 M H2SO4, 1 min, 25 °C. Washes and dilution of the antibodies were performed with NaH2PO4, 200 mM BSA (1% w/v), and 0.05% Tween-20 at pH 7.4. Assays were performed in triplicate with randomized positions of probes or antibodies.
(§3) A stock solution in immobilization buffer (NaH2PO4 200 mM, pH 7.4 ) was prepared for every test peptide. The […]
(§4) withdrawn and diluted step w ise with immobilization buffer from high µM range to 300 nM. Stock solution s an d sample s w ere stored at - 8 0°C.
(§5) - Thawing o f all the sampl es at room temperature for 30 min utes. The samples were quickly centrifuged and carefully mi xed before being used.
(§6) - Plating of the samples (100 µl) into a black non-binding 96-well plate that was previously conditioned overnight with wash buffer (NaH2PO4 200 mM, BS A 1% w/ v, Tween -20 0. 05%, pH 7. 4) and washed 3 times with the immobilization buffer.
(§7) - Sample s wer e transferred wit h a multi-channel pip ette to the clear Ni2+-coated 96 -well p late. Thi s plate-to-plate transfer provided full control of the timing of the Ni2+ -His6 interaction.
(§8) - Incubation for one hour at 25°C.
(§9) - Preparation of the primary antibody dilutions from the stock and then subsequent serial dilutions using […]
(§10) - Wash ing the plate 5 tim es for one minute with wa sh buffer (200 µl) .
(§11) - Plating of the primary antibody (100 µl) and incubation of the primary antibody for 1 hour at 37°C.
(§12) - Preparation of the dilution and plating (100 µl) of the secon dary antibody.
(§13) - Incubation for 30 minutes at 37°C.
(§14) - Wash ing the plate 5 times for one minute with wa sh buffer (200 µl) .
(§15) - Plating of the freshly prepared TMB-H 2O2 solution (1:1, 10 0 µl) .
(§16) - TMB solution incubation for 20 minutes at 25 °C.
(§17) - Plating of the Stop solution (2 M H2SO4, 1 00 µL).
(§18) - Incubation at 25°C for 1 minute.
(§19) - Plate reading at 450 nm, nor mal aperture, 1 second as m e asurem ent time . […]
(§20) for the primary and secondary antibodies. The average value of the optical density of the blanks was subtracted from the OD of the analyte s in the s ame plate befor e data analysi s. All the e xperi ments have be en perfor med a s biologi cal triplicate unless otherwise stated. […]
(§21) in each triplicate to provide randomization on the plate. […]
(§22) - Relative affinity mea suremen ts: 3 serial dilutions o f the pri mary mAbs wer e used in the experi ment fro m […]
(§23) nM). The relati ve binding valu es wer e g enerated by dividing the OD value for each probe by the OD value of the referenc e peptide tested in the sa me plat e, with th e sa me conditions. […]

[2] = test system: anti-pS2 antibody EPR18855; assay: as above; parameters: species or system rabbit; conditions: immobilized peptide
Protocol: as §1, §2, §3, §4, §5, §6, §7, §8, §9, §10, §11, §12, §13, §14, §15, §16, §17, §18, §19, §20, §21, §22, §23

[3] = test system: anti-pS2 antibody E1Z3G; assay: as above; parameters: species or system rabbit; conditions: immobilized peptide
Protocol: as §1, §2, §3, §4, §5, §6, §7, §8, §9, §10, §11, §12, §13, §14, §15, §16, §17, §18, §19, §20, §21, §22, §23

[4] = test system: anti-pS2 antibody 2G1; assay: Competitive ELISA with immobilized phosphopeptide 35; type: binding, rabbit; conditions: for LogIC50, best-fit value (Table S4, 2G1): log10 of competitor concentration, One site-Fit logIC50; for competition against immobilized peptide 35 for antibody binding (in words): peptide in solution, increasing concentrations
Protocol: (§24) The 100% binding value refers to binding of antibody to immobilized 35 in the absence of competitor.
as §3, §4, §5, §6, §7, §8, §9, §10, §11, §12, §13, §14, §15, §16, §17, §18, §19, §20, §21
(§25) After the incubation time and the wash, the seri es of dilutions ( 300, 100, 50, 25, 1 2.5, 6.2 5, 2. 1 and 0.7 nM) of the co mpetit ors wa s plated, all […]
(§26) the samples in half the volu me (50 µL) and double the concentration. Incubation for 5 minutes at 25°C.
(§27) Plating of the primary antibody in half the volume (50 µL) and double the concentration. The final volume in each well was 100 µL, and the final concentration of the primary antibody was 1:1000. On the same plate, a highly concentrated sample of each competitor (1.2 µM) was also plated to evaluate p ossible unspecific

[5] = test system: anti-pS2 antibody EPR18855; assay: as above; type: binding, rabbit; conditions: for LogIC50, best-fit value (Table S4, EPR18855): log10 of competitor concentration, One site-Fit logIC50; for competition against immobilized peptide 35 for antibody binding (in words): peptide in solution, increasing concentrations
Protocol: as §24, §3, §4, §5, §6, §7, §8, §9, §10, §11, §12, §13, §14, §15, §16, §17, §18, §19, §20, §21, §25, §26, §27

[6] = test system: anti-pS2 antibody E1Z3G; assay: as above; type: binding, rabbit; conditions: for LogIC50, best-fit value (Table S4, E1Z3G): log10 of competitor concentration, One site-Fit logIC50; for competition against immobilized peptide 35 for antibody binding (in words): peptide in solution, increasing concentrations
Protocol: as §24, §3, §4, §5, §6, §7, §8, §9, §10, §11, §12, §13, §14, §15, §16, §17, §18, §19, §20, §21, §25, §26, §27

binding enhancement of E1Z3G relative to 35 [3] | competition against immobilized peptide 35 for antibody binding (in words) [4] | competition against immobilized peptide 35 for antibody binding (in words) [5] | competition against immobilized peptide 35 for antibody binding (in words) [6] | Substance | recognition by 2G1 (in words) [1] | recognition by EPR18855 (in words) [2] | LogIC50, best-fit value (Table S4, 2G1) [4] | LogIC50, best-fit value (Table S4, EPR18855) [5] | LogIC50, best-fit value (Table S4, E1Z3G) [6]
5 fold |  |  |  | HHHHHH-NH-(CH2)2-(OCH2CH2)6-CO-YpSPTSPS-YpSPTSPS-YpSPTSPS-YpSPTSPS-YpSPTSPS-YpSPTSPS-NH2 [compound 7, His6-PEG6 hexaheptad CTD peptide, hexa-pSer2] | did not enhance binding | did not enhance binding |  |  | 
 | not able to compete | not able to compete | not able to compete | Ac- YSPTSPS YSPTSPS YSPTSPS YSPTSPS YSPTSPS YSPTSPS -NH2 [compound 4, Ac-hexaheptad CTD peptide amide phosphorylated at each Ser5] |  |  | 7.562 | 1.287 | ~ -3.629
 |  |  |  | H6-NH-(CH2)2-PEG6-CO-YSPTSPS-YpSPTSPS-(YSPTSPS)4-YAPTSPS-(YSPTSPS)-YpSPTSPS-(YSPTSPS)3 [compound 27, dodecaheptad CTD peptide, pSer2 in heptads 2 and 9] | remained at the level of the monovalent phosphopeptide | remained at the level of the monovalent phosphopeptide |  |  | 
 |  |  |  | H6-NH-(CH2)2-PEG6-CO-YSPTSPS-YpSPTSPS-(YSPTSPS)4-YAPTSPS-(YSPTSPS)2-YpSPTSPS-(YSPTSPS)2 [compound 28, dodecaheptad CTD peptide, pSer2 in heptads 2 and 10] | remained at the level of the monovalent phosphopeptide | remained at the level of the monovalent phosphopeptide |  |  | 
 | not able to compete | not able to compete | not able to compete | Ac- YSPTSPS YSPTSPS YSPTSPS YSPTSPS YSPTSPS YSPTSPS -NH2 [compound 3, Ac-hexaheptad CTD peptide amide phosphorylated at each Thr4] |  |  | ~ 8.143 | 8.303 | -5.866
